Test results as given in patent US20220288002A1, “Composition comprising EPA, MA and leucine for improving muscle function” (N.V. Nutricia, priority 2019, published 2022).

System: C2C12 myotubes
Assay: In vitro puromycin incorporation (muscle protein synthesis) in differentiated C2C12 myotubes stimulated with insulin + leucine, Western blot
Type: cell-based, mouse
Protocol: C2C12 mouse myoblasts are obtained from the American Type Culture Source Collection (no. CRL-1772). Myoblasts are cultured at 37° C. in an atmosphere of 5% CO2 in grown medium consisting of Dulbecco's modified Eagle's medium (DMEM) supplemented with 10% fetal calf serum and antibiotics. Myotube C2C12 differentiation is induced by withdrawing fetal calf serum from confluent cells and adding 10 μg/ml insulin, 5 μg/ml transferrin and 2% horse serum. 8-days-differentiated C2C12 myotubes are treated with medium containing EPA and/or MA for 16 hours. After a 4-hour starvation period, C2C12 myotubes were treated with insulin (100 nM)+Leucine (5 mM) for in total 60 min. A limitation of growing myotubes in vitro is that the cells are not able to produce insulin when administered leucine whereas in vivo the pancreas starts producing insulin when leucine is administered to a subject. Common to this model, to compensate for this limitation, the in vitro experiment requires the separate administration of insulin. […] By western-Blot analyses the level of protein synthesis was analyzed. This gives quantitative information on the incorporation of puromycin which is a measure for intracellular pathways regulating protein synthesis (Akt, mTOR) and/or a direct measure of protein synthesis. […]

What does the source list for `CCCCCCCCCCCCCC(=O)O` [MA, myristic acid]?
puromycin incorporation, individual fatty acid (25 μM EPA without MA, or 25 or 50 μM MA without EPA, 16 hours, then insulin (100 nM)+Leucine (5 mM) 60 min, relative to control without stimulation and without fatty acids (indexed at 100)): have an effect on puromycin incorporation; puromycin incorporation, effect of raising MA from 25 μM to 50 μM vs adding 25 μM EPA to 25 μM MA (MA without EPA, 25 μM vs 50 μM, insulin + leucine stimulation): much smaller effect
